Test results: patent US20250002461A1, “DEUTERATED (TRIFLUOROMETHYL)PYRIMIDINE-2-AMINE COMPOUNDS AS POTENTIATORS OF THE HMRGX1 RECEPTOR” (Eli Lilly and Company, priority 2021, published 2025)
Where two headings read alike, the source gives them in different places.

Legend:
human MrgX1 receptor = biological target: T1, human MrgX1 receptor (Homo sapiens, UniProt Q96LB2); test: IP1 cellular assay for EC50 determination against hMrgX1 by HTRF; assay type: cell-based; conditions: for EC50: HEK293 cells expressing human MrgX1, in presence of EC15 of BAM8-22, geometric mean (SEM, n), read-out: Relative EC50 (SEM, n); for Max (Mean ± SEM): maximum stimulation relative to saturating BAM8-22
T1 construct: expressed in transfected cells
T1 sequence (Q96LB2 whole entry): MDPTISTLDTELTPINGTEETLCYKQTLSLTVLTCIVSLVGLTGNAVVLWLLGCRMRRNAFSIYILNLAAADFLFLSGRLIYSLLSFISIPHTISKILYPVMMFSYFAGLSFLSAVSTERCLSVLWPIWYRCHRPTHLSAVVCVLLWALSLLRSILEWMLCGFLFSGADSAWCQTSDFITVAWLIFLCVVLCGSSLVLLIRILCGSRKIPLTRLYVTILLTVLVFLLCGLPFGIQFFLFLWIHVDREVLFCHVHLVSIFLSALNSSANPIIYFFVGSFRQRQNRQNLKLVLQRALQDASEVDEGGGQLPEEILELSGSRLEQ
Description: IP1 Cellular Assay for EC50 Determination Against hMrgX1 by HTRF
Cell plating: HEK293 cells stably expressing the recombinant human MrgX1 receptor were expanded in culture flasks (Corning, T150), using growth media containing DMEM with glutamine (GIBCO™ Cat. #11960-044) supplemented with 10% heat-inactivated FBS (HyClone™, Cat. #CH30073), 1% penicillin/streptomycin (HyClone™, Cat. #SV30010; 10,000 U/mL penicillin; 10,000 μg/mL streptomycin in 0.85% NaCl), 20 mM HEPES (GIBCO™, Cat. #15630122) and 0.3 mg/mL G418 (GIBCO™ Cat. #11811031). When cell monolayers achieved a level of 80-90% confluence, monolayers were washed once with 10 mL of DPBS (HyClone™, Cat. #14190-144), dissociated using TrypLE™ Express enzyme cell dissociation media (GIBCO™ Cat. #12605-010), and were diluted by addition of 10 mL DPBS. Dissociated cells were transferred to a sterile 50 mL conical tube, pelleted by centrifugation at 300×g to remove the growth and dissociation media, and diluted to 1M cells/mL into DMEM for plating.
IP1 Potency and Efficacy Determination: Test compounds were dissolved in DMSO to a concentration of 10 mM and serially diluted in DMSO to obtain a 10-point concentration response stock dilution plate. Growth media was removed from the cell plate, and the stock 10-point dilution plate was diluted into media and stamped into the cell plate at a concentration 2× higher than the final test concentration of […] maximum. The endogenous agonist BAM8-22 (Tocris-BioScience Cat. #1763) was diluted to the EC15, determined independently at a minimum of n=3, into the cell plate and incubated at room temperature for 120 min. Subsequently, half the volume each of anti-IP1 cryptate and d2-labeled IP1 in lysis buffer, supplied with the IP-One Gq Kit (CisBio Cat. #62IPAPEC) was added to the cell plate to initiate cell lysis, and incubated for 60 min at room temperature in the dark. Fluorescence was then determined at 620 and 665 nm (˜100 us following laser excitation).
Data Analysis: Fluorescent ratios were determined as the ratio of the fluorescence emission at 665 nm over 620 nm and converted to IP1 concentration, using the IP1 standard curve generated in a separate plate, following the manufacturer's instructions. The IP1 concentration was then plotted as a function of compound concentration. […]

[1] = Intrinsic clearance in mouse cryopreserved hepatocytes; assay type: in vitro ADME; conditions: 0.3 μM substrate, 37° C.
Description: (§1) In Vitro Determination of Intrinsic Clearance in Mice and Human Hepatocytes
(§2) Cryopreserved hepatocytes are used to determine the in vitro metabolic clearance of pharmaceutical candidates. The following assay was conducted to compare the compound of Example 1 to its undeuterated analog, referred to hereinafter as Compound A:
(§3) Compound incubations (0.3 μM substrate concentrations) were then performed in a 96-well plate format at 37° C. with 200,000 cells/well, shaking at approximately 600 rpm. Incubations were initiated by direct addition of 2 μL of the substrate compounds. At 0, 15, 30, 60, and 90 minutes, 20 μL of incubation samples were quenched with 80 μL acetonitrile containing internal standard. Quenched plates were foil sealed, centrifuged for 30 minutes at 4000 rpm and analyzed for substrate by liquid chromatography with tandem mass spectrometry (LC-MS/MS).
(§4) Intrinsic clearance is a measure of the maximum potential liver metabolism of a compound when not restricted by blood flow or protein binding This intrinsic clearance was determined from the elimination rate constants (kdep; min^−1) measured from the disappearance of substrate in the incubations over time, using the following equation: […]

[2] = Intrinsic clearance in human cryopreserved hepatocytes; assay type: in vitro ADME; conditions: 0.3 μM substrate, 37° C.
Description: as §1, §2, §3, §4

[3] = Determination of pharmacokinetics in mice; assay type: in vivo, mouse; conditions: male CD-1 mice; for CLIV / Vd: IV 1 mg/kg; for Vd / bioavailability: mouse, whole blood (dried blood spot); for Vd: read-out: Vd, ss; for bioavailability: PO 10 mg/kg vs IV 1 mg/kg
Description: Determination of Pharmacokinetics in Mice
Subjects: The subjects for these studies were male CD-1 mice from either Envigo, (Indianapolis, IN, USA) or Charles River Laboratories, Inc (Raleigh, NC, USA) between 4-12 weeks old at time of test. Each dosing group has three animals, and food and water is available ad libitum.
Dosing and Sample Collection: The test compound was administered intravenously (IV) via tail vein at 1 mg/kg (using vehicle: 25% (v/v) Dimethylacetamide (DMA), 15% (v/v) Ethanol (EtOH), 10% (v/v) Propylene Glycol (PG), 25% 2-Pyrrolidone (2-P), and 25% purified water) and orally (PO) via gavage needle at 10 mg/kg (using a vehicle of 1% (w/v) Hydroxyethylcellulose, 0.25% (w/v) Polysorbate 80, 0.05% (v/v) Antifoam1510-US in purified water quantum satis. Blood for dried blood spot (DBS) collection (approximately 20 μL) was collected from each available animal via a saphenous vein utilizing K2EDTA capillary tubes and stored at ambient temperature until analysis. Serial blood samples are collected at 0.08, 0.25, 0.5, 1, 2, 4, 8, 12, 24, and 48 h post dose for IV bolus and at 0.25, 0.5, 1, 2, 4, 8, 12, 24, and 48 h post dose after oral administration.
Sample Analysis: DBS cards (3 mm punches) of samples or standards were each mixed with a 180 uL solution of methanol: acetonitrile (1/1, v/v) containing internal standard to extract analyte followed by a two-fold dilution with water. A 10 uL aliquot of sample or standard is analyzed using an LC-MS/MS method. For Compound A, the lower limit of quantification (LLQ) was 5 ng/ml and the upper limit of quantification (ULQ) was 2500 ng/mL. For the compound of Example 1, the LLQ was 10 ng/ml and ULQ was 10,000 ng/mL
Calculation of pharmacokinetic parameters: Test article concentration data was uploaded into the Thermo Scientific™ Watson LIMS™ system where noncompartmental analysis was used to calculate Area Under the Curve (AUC) for both IV and PO arms, and Mean Residence Time (MRT) from the IV arm. • Bioavailability (% F) was calculated as follows,
[formula] • IV Clearance (CLIV) was calculated as follows,
[formula] • Volume of distribution at steady state (Vd,ss) was calculated as follows, […]

[4] = In vivo determination of Kp,uu,brain in mice; conditions: male, CD1 (ICR), mouse, 100 mg/kg oral
Description: In Vivo Determination of Kp,uu,Brain in Mice
Unbound brain-to-plasma partition coefficient (Kp,uu,brain) is one of the key pharmacokinetic parameters for evaluating a compound's ability to cross the blood-brain barrier (BBB). It is typically measured in pre-clinical species using the following methodology. Kp,uu,brain values indicate the fraction of free drug in plasma that partitions across the BBB.
Subjects: The subjects for these studies were 12 male CD1 (ICR) mice (Envigo, Indianapolis, IN, USA) between 5-7 weeks old at time of test. Mice were housed in groups of 4 in high density plastic home cages. Food and water were available ad libitum. The rooms were maintained at 73° F. with 30-70% relative humidity and kept on a light/dark cycle of 0600-1800 h.
Agent: The compound of Example 1 was prepared at 10 mg/ml in the 1% HEC, 0.25% TWEEN®80, 0.05% DOWSIL™ vehicle in water. Prepared compound was sonicated in water bath for 30 min until a suspension was formed. Mice were dosed orally at 10 ml/kg for a 100 mg/kg dose.
Dosing and Tissue Collection: For this experiment, ten mice received oral dosing of 100 mg/kg of the compound of Example 1. Mice were then euthanized at 2 h post-dosing via CO2 asphyxiation, plasma samples were collected via cardia puncture, and mouse brains removed, weighed, and frozen on dry ice. Blood samples were stored in EDTA tubes on wet ice and centrifuged at 15 k rpm for 10 min. Plasma was collected, plated in a 96-well plate, and frozen at −80° C.
Pharmacokinetic sampling: Plasma and brain samples obtained were analyzed for Example 1 using an LC-MS/MS method (Q2 Solutions, Indianapolis, IN, USA). Plasma samples were extracted using protein precipitation. The lower limit of quantification was 25 ng/mL, and the upper limit of quantification was 5000 ng/mL. Brain samples were homogenized, and the analyte was extracted using protein precipitation. The lower limit of quantification was 4 ng/g and the upper limit of quantification was 200000 ng/g.
Analysis and Results: Kp,uu,brain was calculated for each time point from the expression below where individual components are derived from a combination of in vitro and in vivo measurements carried out as described above:
where Ctotal,brain, Cu,brain, Ctotal,plasma, and Cu,plasma are total and unbound brain and plasma concentrations, and fu,brain and fu,plasma are fractions unbound in brain and plasma, respectively.

[5] = Plasma and brain homogenate protein binding by equilibrium dialysis; assay type: in vitro ADME, mouse
Description: Determination of plasma and brain protein binding: Mouse plasma and brain homogenate protein binding was determined in vitro using equilibrium dialysis, as described elsewhere [Zamek-Gliszczynski et al., J Pharm Sci, 101:1932-1940, 2012]. The results are reported as fraction unbound in plasma (fu,plasma) and brain (fu,brain) which are then utilized to calculate Kp,uu,brain as described below. Mouse fu,plasma and fu,brain of Example 1 was determined to be 0.0667 and 0.011, respectively.

Row | SMILES | EC50 (human MrgX1 receptor) [nM] | Max (Mean ± SEM) (human MrgX1 receptor) | hepatocyte CLint at 0.3 μM [1] [µL/min/1e6 cells] | hepatocyte CLint at 0.3 μM [2] [µL/min/1e6 cells] | CLIV [3] [mL/min/kg] | Vd [3] [L/kg] | bioavailability [3] [%] | concentration at 2 h ([4]; brain (unbound), 2 h, using mouse fu,brain 0.011, read-out: Unbound brain conc. (Cu, brain) ± SD) [µM] | concentration at 2 h ([4]; brain, 2 h post dose, read-out: Total brain conc. (Ctotal, brain) ± SD) [µM] | concentration at 2 h ([4]; plasma (unbound), 2 h, using mouse fu,plasma 0.0667, read-out: Unbound plasma conc. (Cu, plasma) ± SD) [µM] | concentration at 2 h ([4]; plasma, 2 h post dose, read-out: Total plasma conc. (Ctotal, plasma) ± SD) [µM] | Kp uu at 2 h ([4]; 2 h, unbound brain-to-plasma partition coefficient) | fraction unbound ([5]; mouse brain homogenate, read-out: fraction unbound in brain (fu,brain)) | fraction unbound ([5]; mouse plasma, read-out: fraction unbound in plasma (fu,plasma))
1 | [2H]C([2H])([2H])c1c(Oc2c(F)cccc2F)nc(N)nc1C(F)(F)F [Example 2, 4-(2,6-difluorophenoxy)-5-(trideuteriomethyl)-6-(trifluoromethyl)pyrimidin-2-amine] | 28 | 106 ± 8.16, n = 4% | – | – | – | – | – | – | – | – | – | – | – | –
2 | Cc1c(Oc2c(F)cc(C#N)cc2F)nc(N)nc1C(F)(F)F [Compound A, reference compound] | – | – | < 1.8 | 2.62 | 16.1 ± 1.7 | 6.6 ± 0.1 | 34 ± 3.7 | – | – | – | – | – | – | –
3 | [2H]C([2H])([2H])c1c(Oc2c(F)cc(C#N)cc2F)nc(N)nc1C(F)(F)F [Example 1, 4-[2-amino-5-(trideuteriomethyl)-6-(trifluoromethyl)pyrimidin-4-yl]oxy-3,5-difluoro-benzonitrile] | 22 | 111 ± 14.9, n = 4% | < 1.8 | 6.47 | 7.7 ± 1.3 | 9.5 ± 3.1 | 60 ± 2.6 | 0.706 ± 0.25 | 64.1 ± 22.7 | 1.25 ± 0.418 | 18.8 ± 6.26 | 0.586 | 0.011 | 0.0667
